Where two headings read alike, the source gives them in different places.
Experiments:
locomotor activity [1] = test: Decreased Locomotor Activity (L.M.A.), rat; type: in vivo; conditions: po, read-out: L.M.A. MED
Description: (§1) Decreased Locomotor Activity (L.M.A.)
(§2) This reaction sign is measured subjectively by observing how an animal behaves when it is removed from an observation cage and placed on a table top. […] The degree of stimulation by the observer needed to produce active locomotion is rated on an arbitrary scale. This ranges from a score of -1 where only a slight touch of the animal's body is required to a -4 where the animal is unresponsive or minimally responsive to the application of a pain stimulus (pressure at the base of the tail). The minimal effective dose (MED) is the lowest oral dose producting an obvious decrease of locomotor activity (with a score of at least -1). Groups of 3 mice are given decreasing oral doses at 0.5 log intervals (300, 100, 30. . .etc.) until no behavioral effects are evident. Decrease of locomotor activity is indicative of general central nervous system depressant activity.

locomotor activity [2] = test: Decreased Locomotor Activity (L.M.A.), mouse; type: in vivo; conditions: po, read-out: L.M.A. MED
Description: as §1, §2

catalepsy [3] = test: Catalepsy, mouse; type: in vivo; conditions: po, read-out: Catalepsy MED
From the text: (§3) The ability of an animal to remain in an abnormal position is used as another indication of central nervous system depressant activity. A test animal is removed from its observation cage and positioned so that its hind legs are on the table top and its front legs rest on the side of the observation cage. If an animal maintains this position for at least 10 seconds, it is considered to be showing cataleptic behavior.

eyelid closure (ptosis) [4] = test: Ptosis, mouse; type: in vivo; conditions: po, read-out: Ptosis MED
eyelid closure (ptosis) [5] = test: Ptosis, rat; type: in vivo; conditions: po, read-out: Ptosis MED
From the text: Degree of eyelid closure is used as a measure of central nervous system depression. An animal is removed from its observation cage and allowed to remain outside the cage for 30 seconds. At the end of this time a rating of degree of eyelid closure is made on an arbitrary scale.

[6] = test system: phenyl-p-benzoquinone-induced writhing; test: Phenylquinone Writhing (P.Q.W.); type: in vivo, mouse; conditions: po
catalepsy [7] = test: Catalepsy, rat; type: in vivo; conditions: po, read-out: Catalepsy MED
From the text: as §3

taming = test: Rhesus Monkey Taming Effects; type: in vivo; conditions: Macaca mulatta, po, read-out: Taming MED
Description: Rhesus Monkey Taming Effects (Taming):
Results given in: mg/kg po/monkey
Compounds are administered orally to groups of 6 rhesus monkeys. The behavior of the animals is then evaluated by observational means. Taming effects are determined by the ability of the observer to approach and touch the monkey. Compounds with major tranquilizer activity in man can produce a state of passive tameness in the rhesus monkey wherein it can be touched without provoking any of the threatening or aggressive behavior seen in the normal animal. The MED is the minimal oral dose at which some taming effect can be observed.

[8] = test system: conditioned avoidance response; test: Conditioned Avoidance Response (C.A.R.), mouse; type: in vivo; conditions: po, read-out: C.A.R. ED50
Description: (§4) Mouse and Rat Conditioned Avoidance Response (C.A.R.):
(§5) Mice and rats are trained to jump out of a pit onto a ledge to avoid shock when presented with a light and sound conditioned stimulus. The animals are tested 1, 2, and 4 hours after administration of the test compound. Three to four dose levels and groups of 4-8 animals/dose are used. The ED50 is the dose producing a block of the C.A.R. in 50% of the animals. Blocking of the C.A.R. at non-toxic doses appears to correlate with major tranquilizer activity in man.

[9] = test system: fear / feeding in approach-avoidance conflict; test: Rat Conflict (Approach-Avoidance) Test; type: in vivo; conditions: po, read-out: Conflict MED
Description: Rat Conflict (Approach-Avoidance) Test (Conflict)
Results given in: mg/kg po/rat
Food deprived rats are trained to pass from one compartment to an adjacent one to obtain food. The training consists of 3 exposures to the test situation on day one of the experiment. The rats are given limited (1-2 hr) free access to food in their home cages on day one and are then food deprived for at least 18 hours. On day two of the experiment, the rats are given a control exposure to the test situation followed by a second exposure after one-half to 1 hour in which they are shocked after crossing and eating. Groups of 6-8 rats are then dosed orally with solvent or test compound and then re-exposed to the test situation after 1 or 2 hours.
Compounds showing minor tranquilizer (anxiolytic) activity in man such as diazepam and meprobamate produce an apparent decreased fear in the test animals so that they cross to obtain food despite having received a shock earlier. This effect is dose-related (and the MED is the minimum dose at which this effect is obtained); rats dosed with solvent only consistently show a high level of fear as evidenced by decreased mobility and absence of feeding when placed in the test situation after receiving a shock.

TBZ-induced ptosis [10] = test: Tetrabenazine Antagonism (T.B.Z.A.), rat; type: in vivo; conditions: po, 1 h, read-out: T.B.Z.A. ED50
Description: (§6) Tetrabenazine Antagonism (T.B.Z.A.)
(§7) The tetrabenazine (TBZ) antagonism test is used to test for potential antidepressant-like activity in rodents. One hour after oral administration of a test compound, a 40 mg/kg dose of TBZ is given subcutaneously. Thirty minutes after TBZ administration, the mice are placed in the center of a circle; the diameter of the circle is twice the body length of the mouse or rat. After 30 seconds, a reading is made of the degree of ptosis and whether the animal has moved out of the circle. Animals that have received only TBZ will show marked ptosis and immobility. Tricyclic antidepressants of the imipramine type will antagonize the ptosis but not the immobility. Antidepressants of the amphetamine or monoamine oxidase inhibitory type will antagonize both the ptosis and immobility induced by TBZ. The ED50 is the dose producing antagonism of TBZ-induced ptosis, but not of TBZ-induced immobility, in 50% of the animals.

[11] = test system: conditioned avoidance response; test: Conditioned Avoidance Response (C.A.R.), rat; type: in vivo; conditions: po, read-out: C.A.R. ED50
Description: as §4, §5

[12] = test system: conditioned avoidance response; test: Dog Conditioned Avoidance Response (C.A.R.); type: in vivo; conditions: Canis lupus familiaris, po, read-out: C.A.R. ED50
Description: Dog Conditioned Avoidance Response (C.A.R.):
Results given in: mg/kg po/dog
Dogs are trained to raise a forelimb when presented with a conditioned stimulus (light) in order to avoid an electric shock. Blocks of 10 trials are given to groups of 4 dogs during a pretreatment period and at 1, 2, and 4 hours after oral administration of the test compound. The ED50 values are calculated as the dose causing 50% of the animals to show 5 or more incorrect responses. Blocking of the C.A.R. at non-toxic doses appears to correlate with major tranquilizer activity in man.

TBZ-induced ptosis [13] = test: Tetrabenazine Antagonism (T.B.Z.A.), mouse; type: in vivo; conditions: po, 1 h, read-out: T.B.Z.A. ED50
Description: as §6, §7

[14] = 0.5 h, mouse, phenyl-p-benzoquinone 2.5 mg/kg i.p. 30 minutes after compound, read-out: P.Q.W. ED50
[15] = mouse, block of C.A.R. in 50% of animals, 1, 2, and 4 hours
[16] = rat, TBZ 40 mg/kg s.c. one hour after compound
[17] = rat, block of C.A.R. in 50% of animals, 1, 2, and 4 hours
[18] = dog, 5 or more incorrect responses in 50% of animals, 1, 2, and 4 hours
[19] = mouse, TBZ 40 mg/kg s.c. one hour after compound

Row | SMILES | minimal effective dose (locomotor activity [1]; minimal effective dose) [mg/kg] | minimal effective dose (locomotor activity [2]; mouse, minimal effective dose) [mg/kg] | minimal effective dose (catalepsy [3]; mouse) [mg/kg] | minimal effective dose (eyelid closure (ptosis) [4]; mouse, passive ptosis) [mg/kg] | minimal effective dose (eyelid closure (ptosis) [5]; rat, passive ptosis) [mg/kg] | ED50 [6, 14] [mg/kg] | minimal effective dose (catalepsy [7]; rat) [mg/kg] | other results
1 | c1ccc(CN2CC[C@@H]3[C@@H](C2)c2cccc4c2N3c2ccccc2CC4)cc1 (relative stereo) [Example 6, trans-3-Benzyl-1,2,3,4,4a,8,9,14a-octahydropyrido[4',3':2,3]indolo[1,7-ab][1]benzazepine] | 65 | 2 | 49 | 13 | 150 | 28 | > 300 | –
2 | c1ccc2c(c1)CCc1cccc3c1N2[C@H]1CCN(C[C@H]2[C@@H]4CCCC[C@@H]42)C[C@H]31 (relative stereo) [Example 7, trans-1,2,3,4,4a,8,9,14a-Octahydro-3-(exo-7-norcarylmethyl)pyrido[4',3':2,3] indolo[1,7-ab][1]benzazepine] | 3 | 3 | 3 | 3 | 3 | 14 | 300 | –
3 | Cl.c1ccc2c(c1)CCc1cccc3c1N2[C@@H]1CCN(CC2CCCC2)C[C@@H]31 (relative stereo) [cyclopentylmethyl, trans-3-cyclopentylmethyl1,2,3,4,4a,8,9,14a-octahydropyrido[4',3':2,3]indolo[1,7-ab][1]benzazepine hydrochloride] | – | – | – | – | – | 2 | – | –
4 | CN1CC[C@H]2[C@@H](C1)c1cccc3c1N2c1ccccc1CC3 (relative stereo) [methyl octahydro cis] | – | – | – | – | – | – | – | minimal effective dose (taming): > 20 mg/kg; ED50 ([8]; Mus musculus, 4 h): > 40 mg/kg; minimal effective dose ([9]; Rattus norvegicus): > 40 mg/kg; minimal effective dose (locomotor activity [1]): 30 mg/kg; minimal effective dose (locomotor activity [2]; Mus musculus): 30 mg/kg; ED50 (TBZ-induced ptosis [10]; Rattus norvegicus): 7.4 mg/kg; minimal effective dose (catalepsy [3]; Mus musculus): > 300 mg/kg; ED50 ([11]; Rattus norvegicus, 4 h): > 40 mg/kg; minimal effective dose (eyelid closure (ptosis) [4]; Mus musculus): > 300 mg/kg; minimal effective dose (eyelid closure (ptosis) [5]; Rattus norvegicus): > 300 mg/kg; ED50 ([12]; 4 h): > 30 mg/kg; ED50 (TBZ-induced ptosis [13]; Mus musculus): 15 mg/kg; minimal effective dose (catalepsy [7]; Rattus norvegicus): > 300 mg/kg
5 | c1ccc(CCN2CC[C@H]3[C@H](C2)c2cccc4c2N3c2ccccc2CC4)cc1 (relative stereo) [phenethyl, trans-1,2,3,4,4a,8,9,14a-octahydro-3-phenethylpyrido[4',3+:2,3]indolo[1,7-ab][1]benzazepine] | – | – | – | – | – | 4.7 | – | –
6 | c1ccc2c(c1)CCc1cccc3c4c(n-2c13)CCN(CC1CC1)C4 [(cyclopropylmethyl) hexahydro, 3-(cyclopropylmethyl)-1,2,3,4,8,9-hexahydropyrido[4',3':2,3]indolo[1,7-ab][1]benzazepine] | 10 | 10 | 30 | 30 | 30 | – | 30 | minimal effective dose (taming; rhesus monkey): 3 mg/kg; ED50 [8, 15]: 20 mg/kg; minimal effective dose ([9]; rat, after 1 or 2 hours): 10 mg/kg; ED50 (TBZ-induced ptosis [10]; [16]): > 100 mg/kg; ED50 [11, 17]: 40 mg/kg; ED50 [12, 18]: > 30 mg/kg; ED50 (TBZ-induced ptosis [13]; [19]): > 100 mg/kg
7 | COc1ccc2c3c1O[C@H]1[C@@H](O)C=C[C@H]4[C@@H](C2)N(C)CC[C@@]341 [Codeine phosphate] | – | – | – | – | – | – | – | ED50 ([6]; Mus musculus, read-out: Analgesic ED50): 19 mg/kg
8 | CC(=O)Oc1ccccc1C(=O)O [aspirin] | – | – | – | – | – | 94 | – | –
9 | c1ccc(CN2CCc3c(c4cccc5c4n3-c3ccccc3CC5)C2)cc1 [benzyl hexahydro, 3-benzyl-1,2,3,4,8,9-hexahydropyrido[4',3':2,3]indolo[1,7-ab][1] benzazepine] | > 300 | ~200 | > 300 | > 300 | > 300 | – | > 300 | –
10 | COc1ccc2c3c1O[C@H]1[C@@H](O)C=C[C@H]4[C@@H](C2)N(C)CC[C@@]341 [codeine] | – | – | – | – | – | – | – | ED50 ([6]; Mus musculus, 0.5 h, read-out: P.Q.W. ED50): 19 mg/kg
11 | CCN1CCc2c(c3cccc4c3n2-c2ccccc2CC4)C1 [ethyl hexahydro] | 30 | 30 | > 300 | 30 | > 300 | – | > 300 | minimal effective dose (taming; rhesus monkey): > 20 mg/kg; ED50 [8, 15]: > 40 mg/kg; minimal effective dose ([9]; rat, after 1 or 2 hours): 20 mg/kg; ED50 (TBZ-induced ptosis [10]; [16]): > 100 mg/kg; ED50 [11, 17]: > 40 mg/kg; ED50 [12, 18]: > 30 mg/kg; ED50 (TBZ-induced ptosis [13]; [19]): > 100 mg/kg
12 | CC(C)CN1CCc2c(c3cccc4c3n2-c2ccccc2CC4)C1 [isobutyl hexahydro] | – | ~60 | ~60 | ~60 | – | – | – | –
13 | CN1CCc2c(c3cccc4c3n2-c2ccccc2CC4)C1 [methyl hexahydro, 1,2,3,4,8,9-hexahydro-3-methylpyrido[4',3':2,3]indolo[1,7-ab][1]benzazepine] | 30 | 10 | 300 | 30 | 30 | – | 100 | minimal effective dose (taming; rhesus monkey): 10 mg/kg; ED50 [8, 15]: 20 mg/kg; minimal effective dose ([9]; rat, after 1 or 2 hours): 20 mg/kg; ED50 (TBZ-induced ptosis [10]; [16]): > 100 mg/kg; ED50 [11, 17]: 30 mg/kg; ED50 [12, 18]: > 30 mg/kg; ED50 (TBZ-induced ptosis [13]; [19]): > 100 mg/kg

Reference: patent publication US3932650A, “Trans-octahydropyridoindolobenzazepines as central nervous system depressants” (E. I. Du Pont de Nemours & Company, priority 1973, dated 1976)
